{"source": "PubChem BioAssay AID1963437", "about": "(Molecular Pharmacology Branch, DTP, NCI, 2024)", "tested_on": "OVCAR-8 complex spheroid, growth inhibition", "assay": "Anticancer human tumor OVCAR-8 cell line growth inhibition [Asc];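 further: spheroids exposed to agents for 7 days before readout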;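 on viability, T/C: percent viability relative to DMSO vehicle wells taken as 100%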", "conditions": "for viability, T/C: stronger effect = lower value", "in_short": "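Stromal components (HUVEC and hMSC) are co-assembled with the cancer cells into multicellular spheroids. Drugs are then added singly or paired, at concentrations falling by half-log increments from a clinically achievable maximum, capped at 10 microM without known Cmax.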", "key": {"[1]": {"conditions": "curve of first compound, second compound 0.00316 µM"}, "[2]": {"conditions": "curve of first compound, second compound 0.01 µM"}, "[3]": {"conditions": "curve of first compound, second compound 0.0316 µM"}, "[4]": {"conditions": "curve of first compound, second compound 0.1 µM"}, "[5]": {"conditions": "curve of first compound, second compound 0.316 µM"}, "[6]": {"conditions": "curve of first compound, second compound 1 µM"}}, "note": "“And” between values parts separate entries of the source, which are not always exact repeats. Equal entries are not always repeated.", "data": [{"smiles": "Cc1nc(N2CCC3(CC2)COC(C)C3N)c(CO)nc1Sc1ccnc(N)c1Cl", "note": "(stereo unspecified) + CNC(C)C(=O)NC1CN(S(=O)(=O)c2cccc(S(=O)(=O)N3CCC4CCC(C(=O)NC(c5ccccc5)c5ccccc5)N4C(=O)C(NC(=O)C(C)NC)C3)c2)CCC2CCC(C(=O)NC(c3ccccc3)c3ccccc3)N2C1=O", "values": [{"measurement": "IC50", "setting": "[1]", "result": "> 3000", "unit": "nM"}, {"measurement": "IC50", "setting": "[2]", "result": "> 3000", "unit": "nM"}, {"measurement": "IC50", "setting": "[3]", "result": "> 3000", "unit": "nM"}, {"measurement": "IC50", "setting": "[4]", "result": "> 3000", "unit": "nM"}, {"measurement": "IC50", "setting": "[5]", "result": "> 3000", "unit": "nM"}, {"measurement": "IC50", "setting": "[6]", "result": "> 3000", "unit": "nM"}, {"measurement": "viability, T/C", "setting": "second compound 0.00316 µM, first compound 0.00949 µM", "result": 130, "unit": "%"}, {"measurement": "viability, T/C", "setting": "second compound 0.00316 µM, first compound 0.03 µM", "result": 136, "unit": "%"}, {"measurement": "viability, T/C", "setting": "second compound 0.00316 µM, first compound 0.0949 µM", "result": 208, "unit": "%"}, {"measurement": "viability, T/C", "setting": "second compound 0.00316 µM, first compound 0.3 µM", "result": 235, "unit": "%"}, {"measurement": "viability, T/C", "setting": "second compound 0.00316 µM, first compound 0.949 µM", "result": 260, "unit": "%"}, {"measurement": "viability, T/C", "setting": "second compound 0.00316 µM, first compound 3 µM", "result": 245, "unit": "%"}, {"measurement": "viability, T/C", "setting": "second compound 0.01 µM, first compound 0.00949 µM", "result": 111, "unit": "%"}, {"measurement": "viability, T/C", "setting": "second compound 0.01 µM, first compound 0.03 µM", "result": 130, "unit": "%"}, {"measurement": "viability, T/C", "setting": "second compound 0.01 µM, first compound 0.0949 µM", "result": 163, "unit": "%"}, {"measurement": "viability, T/C", "setting": "second compound 0.01 µM, first compound 0.3 µM", "result": 251, "unit": "%"}, {"measurement": "viability, T/C", "setting": "second compound 0.01 µM, first compound 0.949 µM", "result": 263, "unit": "%"}, {"measurement": "viability, T/C", "setting": "second compound 0.01 µM, first compound 3 µM", "result": 237, "unit": "%"}, {"measurement": "viability, T/C", "setting": "second compound 0.0316 µM, first compound 0.00949 µM", "result": 93, "unit": "%"}, {"measurement": "viability, T/C", "setting": "second compound 0.0316 µM, first compound 0.03 µM", "result": 130, "unit": "%"}, {"measurement": "viability, T/C", "setting": "second compound 0.0316 µM, first compound 0.0949 µM", "result": 166, "unit": "%"}, {"measurement": "viability, T/C", "setting": "second compound 0.0316 µM, first compound 0.3 µM", "result": 205, "unit": "%"}, {"measurement": "viability, T/C", "setting": "second compound 0.0316 µM, first compound 0.949 µM", "result": 248, "unit": "%"}, {"measurement": "viability, T/C", "setting": "second compound 0.0316 µM, first compound 3 µM", "result": 224, "unit": "%"}, {"measurement": "viability, T/C", "setting": "second compound 0.1 µM, first compound 0.00949 µM", "result": 86.7, "unit": "%"}, {"measurement": "viability, T/C", "setting": "second compound 0.1 µM, first compound 0.03 µM", "result": 111, "unit": "%"}, {"measurement": "viability, T/C", "setting": "second compound 0.1 µM, first compound 0.0949 µM", "result": 155, "unit": "%"}, {"measurement": "viability, T/C", "setting": "second compound 0.1 µM, first compound 0.3 µM", "result": 166, "unit": "%"}, {"measurement": "viability, T/C", "setting": "second compound 0.1 µM, first compound 0.949 µM", "result": 208, "unit": "%"}, {"measurement": "viability, T/C", "setting": "second compound 0.1 µM, first compound 3 µM", "result": 171, "unit": "%"}, {"measurement": "viability, T/C", "setting": "second compound 0.316 µM, first compound 0.00949 µM", "result": 70.7, "unit": "%"}, {"measurement": "viability, T/C", "setting": "second compound 0.316 µM, first compound 0.03 µM", "result": 82.6, "unit": "%"}, {"measurement": "viability, T/C", "setting": "second compound 0.316 µM, first compound 0.0949 µM", "result": 109, "unit": "%"}, {"measurement": "viability, T/C", "setting": "second compound 0.316 µM, first compound 0.3 µM", "result": 169, "unit": "%"}, {"measurement": "viability, T/C", "setting": "second compound 0.316 µM, first compound 0.949 µM", "result": 140, "unit": "%"}, {"measurement": "viability, T/C", "setting": "second compound 0.316 µM, first compound 3 µM", "result": 110, "unit": "%"}, {"measurement": "viability, T/C", "setting": "second compound 1 µM, first compound 0.00949 µM", "result": 81.5, "unit": "%"}, {"measurement": "viability, T/C", "setting": "second compound 1 µM, first compound 0.03 µM", "result": 95.1, "unit": "%"}, {"measurement": "viability, T/C", "setting": "second compound 1 µM, first compound 0.0949 µM", "result": 119, "unit": "%"}, {"measurement": "viability, T/C", "setting": "second compound 1 µM, first compound 0.3 µM", "result": 123, "unit": "%"}, {"measurement": "viability, T/C", "setting": "second compound 1 µM, first compound 0.949 µM", "result": 116, "unit": "%"}, {"measurement": "viability, T/C", "setting": "second compound 1 µM, first compound 3 µM", "result": 75.1, "unit": "%"}]}, {"smiles": "NC1CCC(NC2CC2c2ccccc2)CC1", "note": "(stereo unspecified)", "values": [{"measurement": "viability, T/C", "setting": "compound 0.000316 µM", "result": "94.7% and 96.7% and 105%"}, {"measurement": "viability, T/C", "setting": "compound 0.001 µM", "result": "87.7% and 82.6% and 99.8%"}, {"measurement": "viability, T/C", "setting": "compound 0.00316 µM", "result": "83.1% and 85.2% and 104%"}, {"measurement": "viability, T/C", "setting": "compound 0.01 µM", "result": "104% and 81.5% and 119%"}, {"measurement": "viability, T/C", "setting": "compound 0.0316 µM", "result": "113% and 98.7% and 95%"}, {"measurement": "viability, T/C", "setting": "compound 0.1 µM", "result": "83% and 91.6% and 115%"}, {"measurement": "IC50", "setting": "curve of compound", "result": "> 100", "unit": "nM"}]}, {"smiles": "COc1c(OCCCN2CCOCC2)ccc2c3n(c(=NC(=O)c4cnc(N)nc4)nc12)CCN3", "note": "+ CNC(C)C(=O)NC1CN(S(=O)(=O)c2cccc(S(=O)(=O)N3CCC4CCC(C(=O)NC(c5ccccc5)c5ccccc5)N4C(=O)C(NC(=O)C(C)NC)C3)c2)CCC2CCC(C(=O)NC(c3ccccc3)c3ccccc3)N2C1=O", "values": [{"measurement": "IC50", "setting": "[1]", "result": "> 1000", "unit": "nM"}, {"measurement": "IC50", "setting": "[2]", "result": "> 1000", "unit": "nM"}, {"measurement": "IC50", "setting": "[3]", "result": 915, "unit": "nM"}, {"measurement": "IC50", "setting": "[4]", "result": 730, "unit": "nM"}, {"measurement": "IC50", "setting": "[5]", "result": 563, "unit": "nM"}, {"measurement": "IC50", "setting": "[6]", "result": 326, "unit": "nM"}, {"measurement": "viability, T/C", "setting": "second compound 0.00316 µM, first compound 0.00316 µM", "result": 110, "unit": "%"}, {"measurement": "viability, T/C", "setting": "second compound 0.00316 µM, first compound 0.01 µM", "result": 94.7, "unit": "%"}, {"measurement": "viability, T/C", "setting": "second compound 0.00316 µM, first compound 0.0316 µM", "result": 131, "unit": "%"}, {"measurement": "viability, T/C", "setting": "second compound 0.00316 µM, first compound 0.1 µM", "result": 137, "unit": "%"}, {"measurement": "viability, T/C", "setting": "second compound 0.00316 µM, first compound 0.316 µM", "result": 126, "unit": "%"}, {"measurement": "viability, T/C", "setting": "second compound 0.00316 µM, first compound 1 µM", "result": 73.1, "unit": "%"}, {"measurement": "viability, T/C", "setting": "second compound 0.01 µM, first compound 0.00316 µM", "result": 99.5, "unit": "%"}, {"measurement": "viability, T/C", "setting": "second compound 0.01 µM, first compound 0.01 µM", "result": 105, "unit": "%"}, {"measurement": "viability, T/C", "setting": "second compound 0.01 µM, first compound 0.0316 µM", "result": 113, "unit": "%"}, {"measurement": "viability, T/C", "setting": "second compound 0.01 µM, first compound 0.1 µM", "result": 149, "unit": "%"}, {"measurement": "viability, T/C", "setting": "second compound 0.01 µM, first compound 0.316 µM", "result": 129, "unit": "%"}, {"measurement": "viability, T/C", "setting": "second compound 0.01 µM, first compound 1 µM", "result": 64.4, "unit": "%"}, {"measurement": "viability, T/C", "setting": "second compound 0.0316 µM, first compound 0.00316 µM", "result": 99.6, "unit": "%"}, {"measurement": "viability, T/C", "setting": "second compound 0.0316 µM, first compound 0.01 µM", "result": 92.7, "unit": "%"}, {"measurement": "viability, T/C", "setting": "second compound 0.0316 µM, first compound 0.0316 µM", "result": 107, "unit": "%"}, {"measurement": "viability, T/C", "setting": "second compound 0.0316 µM, first compound 0.1 µM", "result": 133, "unit": "%"}, {"measurement": "viability, T/C", "setting": "second compound 0.0316 µM, first compound 0.316 µM", "result": 135, "unit": "%"}, {"measurement": "viability, T/C", "setting": "second compound 0.0316 µM, first compound 1 µM", "result": 44.7, "unit": "%"}, {"measurement": "viability, T/C", "setting": "second compound 0.1 µM, first compound 0.00316 µM", "result": 82.5, "unit": "%"}, {"measurement": "viability, T/C", "setting": "second compound 0.1 µM, first compound 0.01 µM", "result": 92.9, "unit": "%"}, {"measurement": "viability, T/C", "setting": "second compound 0.1 µM, first compound 0.0316 µM", "result": 101, "unit": "%"}, {"measurement": "viability, T/C", "setting": "second compound 0.1 µM, first compound 0.1 µM", "result": 115, "unit": "%"}, {"measurement": "viability, T/C", "setting": "second compound 0.1 µM, first compound 0.316 µM", "result": 105, "unit": "%"}, {"measurement": "viability, T/C", "setting": "second compound 0.1 µM, first compound 1 µM", "result": 31.6, "unit": "%"}, {"measurement": "viability, T/C", "setting": "second compound 0.316 µM, first compound 0.00316 µM", "result": 87.5, "unit": "%"}, {"measurement": "viability, T/C", "setting": "second compound 0.316 µM, first compound 0.01 µM", "result": 77.3, "unit": "%"}, {"measurement": "viability, T/C", "setting": "second compound 0.316 µM, first compound 0.0316 µM", "result": 98.7, "unit": "%"}, {"measurement": "viability, T/C", "setting": "second compound 0.316 µM, first compound 0.1 µM", "result": 113, "unit": "%"}, {"measurement": "viability, T/C", "setting": "second compound 0.316 µM, first compound 0.316 µM", "result": 84.1, "unit": "%"}, {"measurement": "viability, T/C", "setting": "second compound 0.316 µM, first compound 1 µM", "result": 16, "unit": "%"}, {"measurement": "viability, T/C", "setting": "second compound 1 µM, first compound 0.00316 µM", "result": 92.9, "unit": "%"}, {"measurement": "viability, T/C", "setting": "second compound 1 µM, first compound 0.01 µM", "result": 90.4, "unit": "%"}, {"measurement": "viability, T/C", "setting": "second compound 1 µM, first compound 0.0316 µM", "result": 111, "unit": "%"}, {"measurement": "viability, T/C", "setting": "second compound 1 µM, first compound 0.1 µM", "result": 92.5, "unit": "%"}, {"measurement": "viability, T/C", "setting": "second compound 1 µM, first compound 0.316 µM", "result": 51.3, "unit": "%"}, {"measurement": "viability, T/C", "setting": "second compound 1 µM, first compound 1 µM", "result": 4.42, "unit": "%"}]}]}
